The source of these data is ChEMBL document CHEMBL4020849, “4,6-Diaminopyrimidines as Highly Preferred Troponin I-Interacting Kinase (TNNI3K) Inhibitors” (J Med Chem, 2018).

A short description of data set [1]: Clearance in Sprague-Dawley rat plasma at 1 mg/kg, iv administered as 30 mins infusion by LC-MS/MS analysis. The format is ADME, organism-based.
In the next data set the test system is Rattus norvegicus. Kind of data set: Dose normalized AUC in Sprague-Dawley rat plasma at 2 mg/kg, po administered as gastric bolus dose by LC-MS/MS analysis. The format is ADME, organism-based. Particulars: in vivo.
Data set [2] concerns the target T1, Serine/threonine-protein kinase TNNI3K (Homo sapiens, UniProt Q59H18).
T1 sequence (Q59H18 whole entry): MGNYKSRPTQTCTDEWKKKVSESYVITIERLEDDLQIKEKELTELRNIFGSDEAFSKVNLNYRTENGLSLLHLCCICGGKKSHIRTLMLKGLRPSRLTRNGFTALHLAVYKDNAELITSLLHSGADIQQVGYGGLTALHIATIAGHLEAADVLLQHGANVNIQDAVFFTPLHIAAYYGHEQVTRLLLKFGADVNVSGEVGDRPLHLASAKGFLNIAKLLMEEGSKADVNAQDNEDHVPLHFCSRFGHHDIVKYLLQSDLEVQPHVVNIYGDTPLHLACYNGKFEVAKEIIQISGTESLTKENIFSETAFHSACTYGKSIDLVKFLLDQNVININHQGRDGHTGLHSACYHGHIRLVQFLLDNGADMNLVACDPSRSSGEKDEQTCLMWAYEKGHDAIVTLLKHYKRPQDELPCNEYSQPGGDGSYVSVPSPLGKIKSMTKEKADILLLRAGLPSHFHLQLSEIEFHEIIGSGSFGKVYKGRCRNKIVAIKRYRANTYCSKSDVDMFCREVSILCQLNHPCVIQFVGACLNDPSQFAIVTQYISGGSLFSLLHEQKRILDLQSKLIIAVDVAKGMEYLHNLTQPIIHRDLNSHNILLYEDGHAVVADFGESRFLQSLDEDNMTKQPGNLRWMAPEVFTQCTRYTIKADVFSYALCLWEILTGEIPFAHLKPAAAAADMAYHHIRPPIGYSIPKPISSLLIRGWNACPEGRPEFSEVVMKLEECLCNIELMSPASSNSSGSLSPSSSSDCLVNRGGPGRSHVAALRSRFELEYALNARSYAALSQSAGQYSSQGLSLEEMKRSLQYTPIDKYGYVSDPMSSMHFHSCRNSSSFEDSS
Kind of data set: Inhibition of human Myc-tagged TNNI3K autophosphorylation expressed in HEKMSR2 cells after 30 mins by DELFIA. The format is cell-based.

Data set [3] can be described thus: Oral bioavailability in Sprague-Dawley rat plasma at 2 mg/kg administered as gastric bolus dose by LC-MS/MS analysis. The format is ADME, organism-based.
For data set [4], the target named is Epidermal growth factor receptor (Homo sapiens, UniProt P00533). Kind of data set: Inhibition of EGFR (unknown origin).
Epidermal growth factor receptor, sequence (P00533 whole entry, the tested form may be a part): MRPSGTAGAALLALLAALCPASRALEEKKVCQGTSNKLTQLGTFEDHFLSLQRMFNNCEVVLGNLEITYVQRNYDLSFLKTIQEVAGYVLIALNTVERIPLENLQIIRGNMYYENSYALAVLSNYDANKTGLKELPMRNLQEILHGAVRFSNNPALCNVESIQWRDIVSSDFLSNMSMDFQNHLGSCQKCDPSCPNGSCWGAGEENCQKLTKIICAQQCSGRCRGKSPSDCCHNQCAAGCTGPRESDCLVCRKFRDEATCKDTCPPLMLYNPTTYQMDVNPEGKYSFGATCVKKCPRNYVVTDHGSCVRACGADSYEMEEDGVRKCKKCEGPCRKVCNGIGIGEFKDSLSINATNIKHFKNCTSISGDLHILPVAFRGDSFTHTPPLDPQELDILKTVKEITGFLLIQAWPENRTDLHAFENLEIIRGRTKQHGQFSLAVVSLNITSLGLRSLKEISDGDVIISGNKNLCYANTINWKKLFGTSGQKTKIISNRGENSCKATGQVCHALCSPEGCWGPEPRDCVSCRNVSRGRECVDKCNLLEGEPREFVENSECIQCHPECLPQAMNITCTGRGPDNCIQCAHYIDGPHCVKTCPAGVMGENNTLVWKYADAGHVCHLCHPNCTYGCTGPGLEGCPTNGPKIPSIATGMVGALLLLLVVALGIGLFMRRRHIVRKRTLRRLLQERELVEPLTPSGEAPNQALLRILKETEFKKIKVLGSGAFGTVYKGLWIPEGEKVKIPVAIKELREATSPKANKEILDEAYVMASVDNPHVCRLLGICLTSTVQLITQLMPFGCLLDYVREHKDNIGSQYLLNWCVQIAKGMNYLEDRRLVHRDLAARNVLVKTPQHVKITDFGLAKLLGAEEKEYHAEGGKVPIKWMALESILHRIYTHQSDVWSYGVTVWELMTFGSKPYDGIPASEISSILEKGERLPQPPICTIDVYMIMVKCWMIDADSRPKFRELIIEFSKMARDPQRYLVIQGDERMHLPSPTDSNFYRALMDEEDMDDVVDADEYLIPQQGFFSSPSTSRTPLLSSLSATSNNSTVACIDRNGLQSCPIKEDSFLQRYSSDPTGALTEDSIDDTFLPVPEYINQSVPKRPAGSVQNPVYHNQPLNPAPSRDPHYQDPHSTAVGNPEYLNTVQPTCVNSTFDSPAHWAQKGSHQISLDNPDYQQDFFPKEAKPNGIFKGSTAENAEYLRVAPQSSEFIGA
The target of data set [5] is T1, Serine/threonine-protein kinase TNNI3K. As to the kind of experiment: Inhibition of 5-({[2-({[3-({4-[(5-hydroxy-2-methylphenyl)amino]-2-pyrimidinyl}amino)phenyl]carbonyl}amino)-ethyl]amino}carbonyl)-2-(6-hydroxy-3-oxo-3H-xanthen-9-yl)benzoic acid binding to human full length His/MBP-fused TNNI3K expressed in baculovirus expression system after 60 mins by fluorescence polarization assay. On the technique in general: Fluorescence polarisation rises when a labelled molecule tumbles more slowly, as on binding a larger partner.

Data set [6] in a line: Selectivity index, ratio of IC50 for EGFR (unknown origin) to IC50 for human full length His/MBP-fused TNNI3K expressed in baculovirus expression system.
The nature of data set [7]: Selectivity index, ratio of IC50 for full length His6-tagged BRAF (unknown origin) expressed in baculovirus expression system to IC50 for human full length His/MBP-fused TNNI3K expressed in baculovirus expression system.
For data set [8], the target named is Serine/threonine-protein kinase B-raf (Homo sapiens, UniProt P15056). Kind of data set: Inhibition of full length His6-tagged BRAF (unknown origin) expressed in baculovirus expression system assessed as reduction in MEK phosphorylation by measuring ADP production by BRAMA.
Serine/threonine-protein kinase B-raf, sequence (P15056 whole entry): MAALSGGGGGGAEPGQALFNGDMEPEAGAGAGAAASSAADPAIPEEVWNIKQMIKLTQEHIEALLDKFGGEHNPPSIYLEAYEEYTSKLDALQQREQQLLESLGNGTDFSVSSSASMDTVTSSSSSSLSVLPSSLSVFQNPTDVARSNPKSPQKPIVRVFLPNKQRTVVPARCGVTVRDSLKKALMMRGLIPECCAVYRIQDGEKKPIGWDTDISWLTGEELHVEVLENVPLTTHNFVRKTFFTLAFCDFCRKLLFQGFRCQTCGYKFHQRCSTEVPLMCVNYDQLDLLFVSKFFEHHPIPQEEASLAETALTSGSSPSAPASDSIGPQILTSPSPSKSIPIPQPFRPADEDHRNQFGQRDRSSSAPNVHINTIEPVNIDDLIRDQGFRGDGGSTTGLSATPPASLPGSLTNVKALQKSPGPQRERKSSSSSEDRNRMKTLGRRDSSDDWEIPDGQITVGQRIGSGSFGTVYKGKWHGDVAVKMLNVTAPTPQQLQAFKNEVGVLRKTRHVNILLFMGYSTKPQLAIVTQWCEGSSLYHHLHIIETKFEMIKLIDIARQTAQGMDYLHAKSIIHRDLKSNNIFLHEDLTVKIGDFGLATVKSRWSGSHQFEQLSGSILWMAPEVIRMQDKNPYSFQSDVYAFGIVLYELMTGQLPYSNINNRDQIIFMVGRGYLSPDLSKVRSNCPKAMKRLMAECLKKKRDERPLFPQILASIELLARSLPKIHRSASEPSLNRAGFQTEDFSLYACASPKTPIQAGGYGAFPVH
Another data set deals with Heart. As to the kind of experiment: Drug uptake in mouse heart at 100 mg/kg/day administered through diet. The format is ADME, organism-based. Particulars: in vivo, read-out: Drug uptake.
The nature of data set [9]: Volume of distribution at steady state in Sprague-Dawley rat plasma at 2 mg/kg, po administered as gastric bolus dose or 1 mg/kg, iv administered as 30 mins infusion by LC-MS/MS analysis. The format is ADME, organism-based. Particulars: read-out: Vdss.
Data set [10] in a line: Half life in Sprague-Dawley rat plasma at 2 mg/kg, po administered as gastric bolus dose or 1 mg/kg, iv administered as 30 mins infusion by LC-MS/MS analysis. The format is ADME, organism-based.
A short description of data set [11]: Fraction unbound in mouse plasma. The format is ADME, cell-free.
Data set [12] deals with Blood. As to the kind of experiment: Drug uptake in mouse blood at 100 mg/kg/day administered through diet. The format is ADME, organism-based. Particulars: in vivo, read-out: Drug uptake.
The test system of data set [13] is Blood. As to the kind of experiment: Unbound drug level in mouse blood at 100 mg/kg/day administered through diet. The format is ADME, organism-based. Particulars: in vivo.

For the compound `CNS(=O)(=O)c1ccc(OC(F)(F)F)c(Nc2cc(Nc3ccc(Cl)cc3)ncn2)c1`, in data set [1], the clearance (usually the rate of elimination divided by the concentration) came to 16 mL/min/kg. Also, the AUC/dose in the data set on Rattus norvegicus was found to be 0.86 kg·h/L. For the same compound, the IC50 (in general, the concentration needed to halve the response being measured) in data set [2] was determined as 320 nM. In data set [3], the bioavailability (commonly dose-corrected exposure relative to a reference, in per cent) was 84%.

In turn, `CNS(=O)(=O)c1cccc(Nc2cc(Nc3ccc(Cl)cn3)ncn2)c1` registered a clearance in [1] of 16 mL/min/kg. The figures for the half-maximal inhibitory concentration (IC50) in [4] and in [5] were 630 nM and 20 nM, respectively. This compound also showed an AUC/dose with Rattus norvegicus of 0.67 kg·h/L. Besides, the bioavailability in data set [3] turned out to be 65%. Besides, the “Ratio IC50” value in [6] turned out to be 32.

In turn, `CNS(=O)(=O)c1ccc(OC(F)(F)F)c(Nc2cc(Nc3ccc(Cl)cn3)ncn2)c1` gave a clearance in data set [1] of 12 mL/min/kg. In the data set on Rattus norvegicus, this compound had an AUC/dose of 0.91 kg·h/L. Besides, the IC50 in data set [2] stood at 63 nM. The compound further showed a bioavailability in data set [3] of 67%.

`CNS(=O)(=O)c1cccc(Nc2cc(Nc3cccc([N+](=O)[O-])c3)ncn2)c1`: the IC50 in [4] came to 4 nM; in data set [2], 500 nM.

For `CNS(=O)(=O)c1ccc(S(=O)(=O)C(C)C)c(Nc2cc(Nc3ccc(Cl)cn3)ncn2)c1`, the AUC/dose in the data set on Rattus norvegicus turned out to be 0.27 kg·h/L. Also, the “Ratio IC50” value in data set [7] was “>=50”. Further, the IC50 in data set [5] is no more than 10 nM; in data set [8], 500 nM.

With `CNS(=O)(=O)c1cccc(N(C)c2cc(Nc3cccc(C)c3)ncn2)c1`, the IC50 in [4] is 2000 nM; in data set [5], 8000 nM. In data set [6], the “Ratio IC50” value turned out to be 0.25.

As to `CNS(=O)(=O)c1ccc(S(C)(=O)=O)c(Nc2cc(Nc3ccc(Cl)cn3)ncn2)c1`, the AUC/dose with Rattus norvegicus was determined as 0.76 kg·h/L. The “Ratio IC50” value in data set [7] amounted to 15. Besides, the IC50 in data set [5] amounted to 13 nM; in [8], 200 nM.

As for `CNS(=O)(=O)c1cccc(Nc2cc(N(C)c3cccc(C)c3)ncn2)c1`, the IC50 in [4] was found to be 20 nM; in data set [5], 2000 nM. The “Ratio IC50” value in data set [6] is recorded as 0.01.

Take `CNS(=O)(=O)c1ccc(OCC(F)(F)F)c(Nc2cc(Nc3ccc(Cl)cn3)ncn2)c1`: in data set [1], the clearance worked out at 7.4 mL/min/kg. Also, the AUC/dose in the data set with Rattus norvegicus worked out at 2.3 kg·h/L. The IC50 was no more than 10 nM in [5] and 13 nM in data set [8]. Moreover, in [3], the bioavailability was 99%.

Regarding `CNS(=O)(=O)c1ccc(S(=O)(=O)C(C)(C)C)c(Nc2cc(Nc3ccc(Cl)cn3)ncn2)c1`, the AUC/dose in the data set on Rattus norvegicus was determined as 0.076 kg·h/L. The “Ratio IC50” value in [7] is recorded as “>=200”. In addition, the concentration for half-maximal inhibition (IC50) in data set [5] was no more than 10 nM; in [8], 2000 nM.

With `CCS(=O)(=O)c1ccc(S(=O)(=O)NC)cc1Nc1cc(Nc2ccc(Cl)cn2)ncn1`, the clearance in data set [1] came to 14 mL/min/kg. Besides, the IC50 is greater than 25000 nM in data set [4], no more than 10 nM in [5], 250 nM in [8] and 8 nM in data set [2]. The AUC/dose in the data set on Rattus norvegicus was determined as 0.56 kg·h/L. In addition, the concentration in the data set on Heart was 1100 nM; in the data set with Blood [12], 400 to 1600 nM. Besides, in [9], the Vd worked out at 1.9 L/kg. Moreover, the “Ratio IC50” value in data set [7] was “>=25”. In addition, in [10], the half-life (in general, the time needed for the level to fall by half in the phase considered) is 2.3 h. In data set [11], the fraction unbound (as a rule, the share of the substance not bound to proteins or other matrix) was found to be 0.035. The bioavailability in data set [3] turned out to be 48%. Further, the Drug uptake(free) in the data set on Blood [13] was 14 to 56 nM.

In data set [1], `CNS(=O)(=O)c1cccc(Nc2cc(Nc3cccc(C)c3)ncn2)c1` returned a clearance of 86 mL/min/kg. The IC50 in data set [4] amounted to 3 nM; in data set [5] it was 32 nM. In the data set with Rattus norvegicus, this compound showed an AUC/dose of 0.037 kg·h/L. Besides, in [3], the bioavailability was found to be 19%. The “Ratio IC50” value in data set [6] stood at 0.1.

Turning to `CNS(=O)(=O)c1ccc(OC)c(Nc2cc(Nc3ccc(Cl)cn3)ncn2)c1`, in [1], the clearance is 9.9 mL/min/kg. Also, the AUC/dose with Rattus norvegicus came to 1.3 kg·h/L. The “Ratio IC50” value in data set [7] is “>=2”. Further, the results for the 50% inhibitory concentration (IC50) in data set [5] and in data set [8] were no more than 10 nM and 20 nM, respectively. Moreover, the bioavailability in data set [3] was 75%.
